These results are taken from US20080221193A1, “3-AMINO CHROMANE DERIVATIVES” (Wyeth, priority 2006, published 2008).

As usually defined, the EC50 is the concentration giving half of the maximal effect. The Ki is a measure of affinity in units of concentration, obtained from inhibition or displacement. Usually IC50 stands for the concentration that inhibits the measured activity by half.

For one assay, the target named is T1, h5HT1a receptor (Homo sapiens, UniProt P08908).
T1 construct: expressed in transfected cells; host or cells: CHO cells, stably transfected
T1 sequence (P08908 1-422): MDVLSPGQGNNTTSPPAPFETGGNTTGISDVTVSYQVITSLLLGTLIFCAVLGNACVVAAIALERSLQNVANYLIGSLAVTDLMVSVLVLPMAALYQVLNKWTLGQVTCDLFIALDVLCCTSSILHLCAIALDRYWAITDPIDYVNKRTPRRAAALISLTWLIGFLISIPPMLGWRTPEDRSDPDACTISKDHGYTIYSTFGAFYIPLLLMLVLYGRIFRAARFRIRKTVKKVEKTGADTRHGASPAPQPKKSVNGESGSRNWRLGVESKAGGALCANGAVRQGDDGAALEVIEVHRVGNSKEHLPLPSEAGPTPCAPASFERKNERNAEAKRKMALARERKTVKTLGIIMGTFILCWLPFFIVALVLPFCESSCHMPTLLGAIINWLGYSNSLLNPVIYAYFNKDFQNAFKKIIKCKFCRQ
In words: cAMP RIA in CHO cells stably transfected with the h5HT1a receptor. The conditions noted are these: for EC50: agonist, forskolin-stimulated cAMP, read-out: 5-HT1A Function cAMP EC50; for IC50: antagonist, reversal of agonist 8-OH-DPAT, read-out: 5-HT1A Function cAMP IC50. It is filed as cell-based. From the text:
(§1) The agonist or antagonist activity at 5-HT1A receptors was established by using two different assays. The ^35S-GTPγS binding assay similar to that used by Lazareno and Birdsall (Br. J. Pharmacol., 1993, 109: 1120) was used to determine the test compound's ability to affect the binding of ^35S-GTPγS to membranes containing cloned human 5-HT1A receptors. Agonists produce an increase in binding whereas antagonists produce no increase but rather reverse the effects of the standard agonist 8-OH-DPAT. The test compound's maximum stimulatory effect is represented as the Emax, while its potency is defined by the EC50. The test compound's maximum inhibitory effect is represented as the Imax, while its potency is defined by the IC50. The second assay measured cAMP accumulation upon binding of the ligand to the 5-HT1A receptor. Antagonists block the effect of the standard agonist 8-OH-DPAT resulting in an increase in cAMP accumulation while agonists have the reverse effect. The test compound's maximum stimulatory or inhibitory effect is represented as the Emax while its potency is defined by either IC50 for an antagonist or EC50 for an agonist. [^3H]-8-OH-DPAT was used to determine maximum agonist or antagonist response in both functional assays.
Stabily transfected CHO cells were grown in DMEM containing 10% heat inactivated FBS and non-essential amino acids. The cells were plated at a density of 10(6) cells per well in a 24 well plate and incubated for 2 days in a CO2 incubator. On the second day, the media was replaced with 0.5 ml treatment buffer (DMEM+25 mM HEPES, 5 mM theophylline, 10 uM pargyline) and incubated 10 minutes at 37° C.
Wells were treated with forskolin (1 μM final conc) followed immediately by test compound (0.1 and 1 uM for initial screen) and incubated for an additional 10 min at 37° C. The reaction was terminated by removal of the media and addition of 0.5 ml ice cold assay buffer (supplied in RIA kit). Plates were stored at −20° C. prior to assessment of cAMP formation by RIA.
Compounds shown to have no agonist activities were further analyzed for ability to reverse agonist activity. In separate experiments, 6 concentrations of antagonist were preincubated for 20 minutes prior to the addition of agonist and forskolin. Cells were harvested as described. The cAMP kit was supplied by Amersham and the RIA was performed as per kit instructions.

The target in assay [1] is T2, human 5-HT1A receptors (Homo sapiens, UniProt P08908).
T2 construct: expressed in transfected cells; host or cells: CHO cells, stably transfected
T2 sequence (P08908 1-422): T1 sequence (P08908 1-422)
As to the kind of experiment: 35S-GTPγS binding assay, membranes containing cloned human 5-HT1A receptors. It is filed as biochemical. The conditions noted are these: for IC50: read-out: 5-HT1A Function GTPγS IC50.
Excerpt: as §1
On the technique in general: GTPγS resists hydrolysis and so accumulates on activated G proteins.

Assay [2] concerns the target T2, human 5-HT1A receptors. As to the kind of experiment: 8-OH-DPAT binding in CHO cells stably transfected with human 5HT1a receptor. The settings on record: displacement of [3H]8-OH-DPAT, CHO cells with human 5-HT1A; read-out: 5-HT1A Receptor Affinity Ki. As for the experimental part: High affinity for the serotonin 5-HT1A receptor was established by testing the claimed compound's ability to displace [^3H] 8-OH-DPAT (dipropylaminotetralin) from the 5-HT1A serotonin receptor following a modification of the procedure of Hall et al., (J. Neurochem., 1985, 44: 1685) which utilizes CHO cells stably transfected with human 5-HT1A receptors.
Stabily transfected CHO cells were grown in DMEM containing 10% heat inactivated FBS and non-essential amino acids. Cells were scraped off the plate, transferred to centrifuge tubes, and washed twice by centrifugation (2000 rpm for 10 min., 4° C.) in buffer (50 mM Tris pH 7.5). The resulting pellets were aliquoted and placed at −80° C. On day of assay, the cells were thawed on ice, and resuspended in buffer. The binding assay was performed in a 96 well microtiter plate in a total volume of […].
Non-specific binding was determined in the presence of […] 5HT, final ligand concentration is 1.5 nM. Following a 30 minute incubation at room temperature, the reaction was terminated by the addition of ice cold buffer and rapid filtration through a GF/B filter presoaked for 30 minutes in 0.5% PEI. Compounds were initially tested in a single point assay to determine percent inhibition at […]. Subsequently, Ki values were determined for compounds defined to be active.
Background: In a radioligand displacement assay an active substance lowers the binding of a labelled ligand.

Another assay addresses h5-HT Transporter (Homo sapiens, UniProt P31645). As to the kind of experiment: h5-HT Transporter Function (Table 1). It is filed as biochemical.

Sequence of h5-HT Transporter (P31645 whole entry): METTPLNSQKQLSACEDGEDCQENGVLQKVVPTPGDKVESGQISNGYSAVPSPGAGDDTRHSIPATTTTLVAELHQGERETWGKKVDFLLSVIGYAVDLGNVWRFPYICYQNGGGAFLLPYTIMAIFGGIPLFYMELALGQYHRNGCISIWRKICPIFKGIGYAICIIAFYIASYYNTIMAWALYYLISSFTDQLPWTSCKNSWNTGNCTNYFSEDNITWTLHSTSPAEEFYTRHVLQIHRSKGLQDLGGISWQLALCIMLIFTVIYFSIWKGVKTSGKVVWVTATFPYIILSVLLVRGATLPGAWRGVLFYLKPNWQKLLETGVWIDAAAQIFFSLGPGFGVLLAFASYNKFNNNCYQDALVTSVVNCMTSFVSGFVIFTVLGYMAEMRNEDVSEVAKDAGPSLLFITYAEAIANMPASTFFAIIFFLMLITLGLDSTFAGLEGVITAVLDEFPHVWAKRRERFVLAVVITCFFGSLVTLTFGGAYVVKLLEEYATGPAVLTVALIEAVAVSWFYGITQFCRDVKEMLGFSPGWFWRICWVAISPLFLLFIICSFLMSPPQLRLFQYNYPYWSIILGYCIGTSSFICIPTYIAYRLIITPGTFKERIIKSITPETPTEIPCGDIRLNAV

Consider `COc1ccc(C(N)=O)c2c1OC[C@H](NCCCc1c[nH]c3ccc(F)cc13)C2` [Example 1, (3R)-3-[3-(5-fluoro-1H-indol-3-yl)propyl]amino-8-methoxychromane-5-carboxamide], for which the EC50 stood at 230 nM at h5HT1a receptor and 489 nM on human 5-HT1A receptors [1] (agonist potency, read-out: 5-HT1A Function GTPγS EC50). In addition, the Ki on human 5-HT1A receptors [2] stood at 113 nM. The IC50 at h5-HT Transporter worked out at 234 nM.

As for `COc1ccc(C(N)=O)c2c1OC[C@H](N(CCCc1c[nH]c3ccc(F)cc13)C1CCC1)C2` [Example 2, (3R)-3-{cyclobutyl[3-(5-fluoro-1H-indol-3-yl)propyl]amino}-8-methoxychromane-5-carboxamide], the results for the half-maximal inhibitory concentration (IC50) on h5HT1a receptor, at human 5-HT1A receptors [1] and against h5-HT Transporter were 92.1 nM, 119 nM and 13.2 nM, respectively. In addition, the Ki at human 5-HT1A receptors [2] is 10.4 nM.

For the compound `CCOc1ccc(C(N)=O)c2c1OC[C@H](N(CCCc1c[nH]c3ccc(F)cc13)C1CCC1)C2` [Example 3, (3R)-3-{cyclobutyl[3-(5-fluoro-1H-indol-3-yl)propyl]amino}-8-ethoxychromane-5-carboxamide], the values for the IC50 at h5HT1a receptor, on human 5-HT1A receptors [1] and against h5-HT Transporter were 768 nM, 5030 nM and 329 nM, respectively. Moreover, the inhibitory constant (Ki) at human 5-HT1A receptors [2] amounted to 108 nM.

In the case of `CCCOc1ccc(C(N)=O)c2c1OC[C@H](N(CCCc1c[nH]c3ccc(F)cc13)C1CCC1)C2` [Example 4, (3R)-3-{cyclobutyl[3-(5-fluoro-1H-indol-3-yl)propyl]amino}-8-propoxychromane-5-carboxamide], the EC50 on h5HT1a receptor was 151 nM. Further, the IC50 at human 5-HT1A receptors [1] came to 684 nM; at h5-HT Transporter, 450 nM. In addition, at human 5-HT1A receptors [2], the Ki worked out at 70.1 nM.

With `CC(C)Oc1ccc(C(N)=O)c2c1OC[C@H](N(CCCc1c[nH]c3ccc(F)cc13)C1CCC1)C2` [Example 5, (3R)-3-{cyclobutyl[3-(5-fluoro-1H-indol-3-yl)propyl]amino}-8-isopropoxychromane-5-carboxamide], the EC50 on h5HT1a receptor is 118 nM. Moreover, the IC50 on human 5-HT1A receptors [1] stood at 3150 nM; at h5-HT Transporter it was 214 nM. In addition, the inhibitory constant (Ki) on human 5-HT1A receptors [2] came out at 35.3 nM.

Regarding `NC(=O)c1ccc(O)c2c1C[C@@H](N(CCCc1c[nH]c3ccc(F)cc13)C1CCC1)CO2` [Example 6, (3R)-3-{cyclobutyl[3-(5-fluoro-1H-indol-3-yl)propyl]amino}-8-hydroxychromane-5-carboxamide], the EC50 at h5HT1a receptor was 312 nM. The IC50 at human 5-HT1A receptors [1] turned out to be 2550 nM; on h5-HT Transporter, 347 nM. In addition, the Ki at human 5-HT1A receptors [2] was found to be 136 nM.

Turning to `COc1ccc(C(N)=O)c2c1OC[C@H](N(CCCc1c[nH]c3ccc(F)cc13)CCC(F)(F)F)C2` [Example 7, (3R)-3-{3,3,3-trifluoropropyl[3-(5-fluoro-1H-indol-3-yl)propyl]amino}-8-methoxychromane-5-carboxamide], on human 5-HT1A receptors [2], the inhibition constant (Ki) turned out to be 636 nM. Besides, 2680 nM corresponded to half-maximal inhibition against h5-HT Transporter (IC50).

Turning to `COc1ccc(C(N)=O)c2c1OC[C@H](N(CCCc1c[nH]c3ccc(F)cc13)CC1CC1)C2` [Example 8, (3R)-3-{cyclopropylmethyl[3-(5-fluoro-1H-indol-3-yl)propyl]amino}-8-methoxychromane-5-carboxamide], the values for the IC50 at h5HT1a receptor, on human 5-HT1A receptors [1] and against h5-HT Transporter were 439 nM, 442 nM and 45.3 nM, respectively. Also, the Ki on human 5-HT1A receptors [2] amounted to 25.5 nM.

At h5-HT Transporter, `COc1ccc(C(N)=O)c2c1OC[C@H](N(CCCc1c[nH]c3ccc(F)cc13)CCCC(F)(F)F)C2` [Example 12, (3R)-3-{4,4,4-trifluorobutyl[3-(5-fluoro-1H-indol-3-yl)propyl]amino}-8-methoxychromane-5-carboxamide] registered an IC50 of 2580 nM.

Take `COc1ccc(C(N)=O)c2c1OC[C@H](N(CCCc1c[nH]c3ccc(F)cc13)CC(C)C)C2` [Example 13, (3R)-3-{2-methylpropyl[3-(5-fluoro-1H-indol-3-yl)propyl]amino}-8-methoxychromane-5-carboxamide]: the IC50 on human 5-HT1A receptors [1] was found to be 2950 nM; against h5-HT Transporter it was 339 nM. In addition, on human 5-HT1A receptors [2], the Ki came out at 214 nM.

On to `CCN(CCCc1c[nH]c2ccc(F)cc12)[C@H]1COc2c(OC)ccc(C(N)=O)c2C1` [Example 14, (3R)-3-{ethyl[3-(5-fluoro-1H-indol-3-yl)propyl]amino}-8-methoxychromane-5-carboxamide], for which the figures for the IC50 at human 5-HT1A receptors [1] and at h5-HT Transporter were 1370 nM and 2.62 nM, respectively. Besides, the Ki on human 5-HT1A receptors [2] was 402 nM.

Regarding `COc1ccc(C(N)=O)c2c1OC[C@H](N(C)CCCc1c[nH]c3ccc(F)cc13)C2` [Example 15, (3R)-3-{methyl[3-(5-fluoro-1H-indol-3-yl)propyl]amino}-8-methoxychromane-5-carboxamide], the Ki at human 5-HT1A receptors [2] worked out at 1700 nM. Also, the IC50 at h5-HT Transporter worked out at 160 nM.

For the compound `CNC(=O)c1ccc(OC)c2c1C[C@@H](N(CCCc1c[nH]c3ccc(F)cc13)CCC(F)(F)F)CO2` [Example 17, (3R)-3-{3,3,3-trifluoropropyl[3-(5-fluoro-1H-indol-3-yl)propyl]amino}-8-methoxychromane-5-methylcarboxamide], the Ki on human 5-HT1A receptors [2] was 662 nM. Besides, on h5-HT Transporter, it took 5540 nM to reach half-maximal inhibition (IC50).

`COc1ccc(C(N)=O)c2c1OC[C@H](N(CCCc1c[nH]c3c(F)cc(F)cc13)C1CCC1)C2` [Example 18, (3R)-3-{cyclobutyl[3-(5,7-difluoro-1H-indol-3-yl)propyl]amino}-8-methoxy-chromane-5-carboxamide]: the IC50 at h5HT1a receptor was 94.2 nM; against h5-HT Transporter, 110 nM. In addition, at human 5-HT1A receptors [2], the Ki is 61.3 nM.

Regarding `COc1ccc(C(N)=O)c2c1OC[C@H](N(CCCC1CNc3ccc(F)cc31)C1CCC1)C2` (stereo partly drawn) [Example 19, (3R)-3-{cyclobutyl[3-(5-fluoro-1H-indolin-3-yl)propyl]amino}-8-methoxy-chromane-5-carboxamide], the IC50 stood at 99.9 nM at h5HT1a receptor and 407 nM against h5-HT Transporter. Also, the Ki at human 5-HT1A receptors [2] was determined as 43.6 nM.

As for `CCSc1ccc(C(N)=O)c2c1OC[C@H](N(CCCc1c[nH]c3ccc(F)cc13)C1CCC1)C2` [Example 23, (3R)-3-{cyclobutyl[3-(5-fluoro-1H-indol-3-yl)propyl]amino}-8-(ethylthio)chromane-5-carboxamide], the IC50 turned out to be 137 nM at h5HT1a receptor and 831 nM at h5-HT Transporter. Besides, the Ki at human 5-HT1A receptors [2] came out at 138 nM.

In the case of `CN(C)c1ccc(C(N)=O)c2c1OC[C@H](N(CCCc1c[nH]c3ccc(F)cc13)C1CCC1)C2` [Example 24, (3R)-3-{cyclobutyl[3-(5-fluoro-1H-indol-3-yl)propyl]amino}-8-(dimethylamino) chromane-5-carboxamide], the Ki at human 5-HT1A receptors [2] came out at 72.7 nM. At h5-HT Transporter, this compound registered an IC50 of 125 nM.

Regarding “(3R)-3-{2-isopropyl[3-(5-fluoro-1H-indol-3-yl)propyl]amino}-8-methoxychromane-5-carboxamide [Example 9]”, on human 5-HT1A receptors [2], the Ki is 515 nM.
